Values quoted from earlier work, collected in patent US6660299B2, “Modified release pharmaceutical formulation comprising amoxycillin” (Beecham Pharmaceuticals Limited, priority 1999, dated 2003).

Details: in vivo

excretion half-life: 1.3 h
SMILES: CC1(C)S[C@@H]2[C@H](NC(=O)[C@H](N)c3ccc(O)cc3)C(=O)N2[C@H]1C(=O)O [amoxycillin]
